Measurements taken from patent US20160030406A1, “CORRECTORS ACTING THROUGH MSD1 OF CFTR PROTEIN” (VERTEX PHARMACEUTICALS INCORPORATED, priority 2013, published 2016).

How the values were obtained:
[1] = molecular target: T1, ΔF508-CFTR (Homo sapiens, UniProt P13569, DEL508-508); conditions: bronchial epithelial cells from CF subjects; cited from earlier work
T1 construct: endogenous in cells; host or cells: primary human bronchial epithelial cells from CF subjects homozygous for ΔF508

[2] = molecular target: T2, CFTR fragments (CFTR^370, CFTR^373, CFTR^375, CFTR^380, CFTR^430, CFTR^530, CFTR^653) (Homo sapiens, UniProt P13569); assay: CFTR fragment steady-state accumulation by immunoblot in HEK293 cells; assay type: cell-based; conditions: HEK293, 4 hours bortezomib
T2 construct: expressed in transfected cells; host or cells: HEK293, transient transfection
Procedure: Steady-state levels of CFTR and its mutants are determined by western blot analysis. HEK293 cells are transiently transfected with the indicated plasmids (Grove, et al., 2011, Mol Biol Cell, 22: 301-14). The transfected cells are allowed to recover for approximately 18 hrs before addition of DMEM and then supplemented with lumacaftor or DMSO (control). The cells are incubated with the correctors for 24 hrs before isolating the cells for western blot analysis. The harvested cells are diluted with 2×SDS sample buffer (100 mM Tris-HCl (pH 6.8)/4% SDS/0.05% Bromophenol Blue/20% glycerol), sonicated, and heated at 37° C. prior to resolving the proteins on SDS-PAGE gels. The proteins are transferred to nitrocellulose membranes and the membranes are probed with the designated antibodies. β-tubulin is used to indicate loading controls.
To localize the region in CFTR on which lumacaftor acts to correct ΔF508-CFTR misfolding, immunoblot and pulse-chase studies are used to monitor the impact of the drug on the accumulation of a set of CFTR and ΔF508-CFTR fragments that expose surfaces present on CFTR folding intermediates.
A set of CFTR fragments with domain boundaries that permitted them to accumulate in unstable or stable states are expressed in HEK293 cells, and the effect of 5 μM lumacaftor on the accumulation of different fragments is determined. As a point of reference, the impact of the proteasome inhibitor bortezomib on CFTR fragment accumulation is also measured.
Cells are treated for 4 hours with bortezomib or 18 hours at 37° C. with lumacaftor. The amount of CFTR fragment accumulation is determined by immunoblot.
To evaluate whether the 362-380 helix is critical for MSD1 folding, the accumulation and sensitivity to lumacaftor of CFTR^373, CFTR^375, and CFTR^380 is analyzed. CFTR^373 accumulation is similar to that of CFTR^370 and insensitive to lumacaftor. CFTR^375 accumulation is similar to CFTR^370, but its amounts are increased around 6-fold by lumacaftor. […] Maximal accumulation of CFTR^380 occurs at 5 μM lumacaftor.

T1 sequence (P13569 with tags, fused parts or gaps DEL508-508): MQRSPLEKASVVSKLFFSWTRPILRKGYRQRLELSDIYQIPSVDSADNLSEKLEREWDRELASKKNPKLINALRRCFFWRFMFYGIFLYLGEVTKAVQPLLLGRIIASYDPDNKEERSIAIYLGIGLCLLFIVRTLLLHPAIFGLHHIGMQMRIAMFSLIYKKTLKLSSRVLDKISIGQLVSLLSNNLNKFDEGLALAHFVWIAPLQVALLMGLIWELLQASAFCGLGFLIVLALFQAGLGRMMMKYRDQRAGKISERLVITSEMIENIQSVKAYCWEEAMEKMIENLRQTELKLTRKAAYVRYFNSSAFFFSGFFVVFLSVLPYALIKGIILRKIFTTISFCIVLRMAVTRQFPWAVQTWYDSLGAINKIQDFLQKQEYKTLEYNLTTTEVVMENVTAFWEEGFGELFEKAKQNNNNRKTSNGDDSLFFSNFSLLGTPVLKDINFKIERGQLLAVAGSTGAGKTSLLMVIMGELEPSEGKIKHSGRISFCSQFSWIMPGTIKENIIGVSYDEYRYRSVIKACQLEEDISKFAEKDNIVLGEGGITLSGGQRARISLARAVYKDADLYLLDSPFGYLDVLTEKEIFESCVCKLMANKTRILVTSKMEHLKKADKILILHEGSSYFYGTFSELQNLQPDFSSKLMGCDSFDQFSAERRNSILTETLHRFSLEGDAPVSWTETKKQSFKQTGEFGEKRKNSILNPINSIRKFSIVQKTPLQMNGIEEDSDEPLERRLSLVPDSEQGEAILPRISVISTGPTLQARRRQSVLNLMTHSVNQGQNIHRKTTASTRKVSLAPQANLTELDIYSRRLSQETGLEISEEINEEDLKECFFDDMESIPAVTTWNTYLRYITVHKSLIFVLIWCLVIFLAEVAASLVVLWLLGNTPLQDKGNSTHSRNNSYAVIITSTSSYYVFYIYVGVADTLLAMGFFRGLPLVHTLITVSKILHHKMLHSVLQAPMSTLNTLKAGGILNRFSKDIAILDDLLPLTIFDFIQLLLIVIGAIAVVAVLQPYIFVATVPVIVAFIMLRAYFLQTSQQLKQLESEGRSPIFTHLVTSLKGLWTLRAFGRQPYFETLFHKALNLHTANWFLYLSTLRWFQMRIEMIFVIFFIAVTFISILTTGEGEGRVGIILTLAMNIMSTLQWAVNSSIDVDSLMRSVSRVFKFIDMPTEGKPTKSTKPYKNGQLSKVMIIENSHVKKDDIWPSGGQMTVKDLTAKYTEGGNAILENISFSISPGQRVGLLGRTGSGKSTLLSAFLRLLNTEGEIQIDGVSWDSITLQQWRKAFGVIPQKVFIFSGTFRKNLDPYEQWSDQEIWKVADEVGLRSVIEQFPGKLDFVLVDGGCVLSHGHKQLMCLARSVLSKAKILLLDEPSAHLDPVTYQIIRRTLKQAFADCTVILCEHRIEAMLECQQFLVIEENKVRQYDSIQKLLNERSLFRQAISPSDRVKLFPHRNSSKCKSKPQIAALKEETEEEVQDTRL

Row | SMILES | ΔF508-CFTR function [1] | accumulation of CFTR^430, sensitivity to proteasome inhibition [2] | accumulation of CFTR^653, sensitivity to proteasome inhibition [2] | increase in accumulation of CFTR^370 [2] [fold] | increase in accumulation of CFTR^530 [2] [fold]
1 | COc1ccc(Cl)cc1Nc1nc(-c2sc(NC(=O)c3ccccc3)nc2C)cs1 [Corr-4a] | partially restored | – | – | – | –
2 | CC(C)C[C@H](NC(=O)[C@H](Cc1ccccc1)NC(=O)c1cnccn1)B(O)O [bortezomib] | – | relatively insensitive | relatively insensitive | 10 | 10
